Test results as given in PMC3004914, “Classification of Drugs Based on Properties of Sodium Channel Inhibition: A Comparative Automated Patch-Clamp Study” (PLoS ONE, 2010).
Read-outs that look alike come from different tables or passages of the source.

Columns and labels:
[1] = biological target: T1, rNav1.2 sodium channels (HEK-293 cells) (Rattus norvegicus, UniProt P04775); test: steady-state inactivation protocol (availability curves), QPatch automated patch-clamp; format: cell-based
Text: (§1) A)–D) Peak amplitudes of evoked currents (5 Hz trains of 5 depolarizations from −90 to −10 mV) are plotted against time. Black dots: Control. Grey dots: Drug perfusion. […] Calculation of properties of inhibition is illustrated. […] E) Calculation of Kr and Ki values from steady-state availability curves.
Standard steady-state inactivation protocols were used to measure the shift of steady-state availability curve caused by the drugs. Currents were evoked by a 10 ms test pulse to −10 mV, preceded by 400 ms pre-pulses from −150 to −30 mV. […] Because the inhibition at hyperpolarized potentials (Inh−150), and the shift of the availability curves (ΔV1/2) are both concentration-dependent properties, we calculated affinities to hyperpolarized and depolarized states (“resting state affinity”: Kr, and “inactivated state affinity”: Ki), which, on the other hand, are concentration-independent characteristics of individual drugs. Calculation of Kr and Ki values are described in Materials and Methods, and illustrated in Figure 1E. State-dependence (SD) was quantified as the ratio Kr/Ki.
(§2) HEK-293 cells stably expressing rNav1.2 sodium channels were obtained from NeuroSearch (Ballerup, Denmark).
(§3) Cells were automatically prepared for application to the chips (centrifuged and washed twice, then resuspended in extracellular solution) as described previously. Composition of the extracellular solution was: (in mM): 140 NaCl, 3 KCl, 1 CaCl2, 1 MgCl2, 0.1 CdCl2, 20 TEA-Cl, 5 HEPES, adjusted to pH 7.3, Osmolality: ∼320 mOsm.
(§4) All electrophysiological experiments were conducted on Qpatch-16 or QPatch HT instruments using QPlate™ chips. For a detailed description of the instrument and the patch-clamp chips see [37], [38]. Data were sampled at a frequency of 25 kHz and filtered at 5 kHz. […] The amplifier was controlled and the data were collected by the Sophion QPatch client software. For initial data analysis the QPatch software was used. Built-in amplifiers provide an improved method for series resistance compensation. Leak subtraction (based on a standard P/n protocol) was used to subtract the capacitive component of currents.
Inactivated affinity (Ki) values were calculated assuming a simple four-state model of drug binding and channel gating, using two separate methods: (1) from the shift of the availability curve (ΔV1/2), the slope of the Boltzmann fit of the availability curve (k) and Kr, using the formula described by Bean, Cohen and Tsien (Ki−ΔV1/2; see Figure 1E), or (2) from the apparent affinity (Kapp) at a certain pre-pulse potential, which was calculated from the inhibition (e.g. Inh−60) as described above, and the availability (h) at the same pre-pulse potential, using the formula from Kuo and Bean (Figure 1E). […] (Arithmetic means and SEM values are given in Results S7.)

[2] = biological target: sodium channels; conditions: averaged literature data, cited from earlier work; for Ki: read-out: Ki−Lit; for Kd: read-out: Kr−Lit
[3] = biological target: T1, rNav1.2 sodium channels (HEK-293 cells); test: 5 Hz train protocol, QPatch automated patch-clamp; format: cell-based; conditions: for Rev (reversibility): Rev = A5/A1 after washout; for potency estimated from few doses: −90 mV, read-out: IC50;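 for UD (use-dependence of the inhibition): UD = (A3/A4)/(A1/A2) as ratios of peak amplitudes from Figure 1A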
Text: The dynamics of the onset and offset of inhibition was monitored using 5 Hz trains of five depolarizing pulses from a holding potential of −90 mV to −10 mV. The trains were repeated every 20 s. Drugs were applied after 10 control trains and 10 trains were delivered in the presence of the drug. The drug was then washed out, and the 10 trains were repeated.
We measured inhibition (Inh; from which we calculated IC50 values as described in Materials and Methods), reversibility of inhibition (Rev) and use-dependence (UD), as well as time constant of onset (τon) and offset (τoff). The calculation of IC50, quantification of Rev and UD, and the determination of time constants are illustrated in Figure 1A. Because τon should be concentration-dependent if we assume a single binding reaction, we excluded it from the analyses. […] Comments on the interpretation of these properties (Rev, […] and UD) are in Results S1.
as §1, §2, §3, §4
From this protocol we extracted five parameters, as illustrated in Figure 1A. We calculated inhibition of a single “cc” concentration: Inh = (amplitudectr – amplitudedrug)/amplitudectr.

[4] = human plasma, cited from earlier work
[5] = HEK293, 30 µM, read-out: Inh (inhibited fraction) at holding potential −150 mV
[6] = arithmetic mean, 30 µM, read-out: Ki-Kapp arith
[7] = arithmetic mean, 30 µM, read-out: Ki-ΔV1/2 arith
[8] = arithmetic mean, 30 µM, read-out: Kr arith
[9] = geometric mean, from Inh at −150 mV, 30 µM, read-out: Kr (resting state affinity)
[10] = geometric mean, from apparent affinity, 30 µM, read-out: Ki−Kapp (inactivated state affinity)
[11] = geometric mean, from shift of availability curve, 30 µM, read-out: Ki−ΔV1/2 (inactivated state affinity)
[12] = 30 μM, 500 s assigned where irreversible
[13] = HEK293, 30 μM, −90 mV holding potential, 5 Hz train, read-out: Inh (inhibited fraction)
[14] = HEK293, calculated from Inh at single concentration 30 μM, 5 Hz train
[15] = HEK293, 300 µM, read-out: Inh (inhibited fraction) at holding potential −150 mV
[16] = arithmetic mean, 300 µM, read-out: Ki-Kapp arith
[17] = arithmetic mean, 300 µM, read-out: Kr arith
[18] = geometric mean, from Inh at −150 mV, 300 µM, read-out: Kr (resting state affinity)
[19] = geometric mean, from apparent affinity, 300 µM, read-out: Ki−Kapp (inactivated state affinity)

T1 sequence (P04775 whole entry, the tested form may be a part): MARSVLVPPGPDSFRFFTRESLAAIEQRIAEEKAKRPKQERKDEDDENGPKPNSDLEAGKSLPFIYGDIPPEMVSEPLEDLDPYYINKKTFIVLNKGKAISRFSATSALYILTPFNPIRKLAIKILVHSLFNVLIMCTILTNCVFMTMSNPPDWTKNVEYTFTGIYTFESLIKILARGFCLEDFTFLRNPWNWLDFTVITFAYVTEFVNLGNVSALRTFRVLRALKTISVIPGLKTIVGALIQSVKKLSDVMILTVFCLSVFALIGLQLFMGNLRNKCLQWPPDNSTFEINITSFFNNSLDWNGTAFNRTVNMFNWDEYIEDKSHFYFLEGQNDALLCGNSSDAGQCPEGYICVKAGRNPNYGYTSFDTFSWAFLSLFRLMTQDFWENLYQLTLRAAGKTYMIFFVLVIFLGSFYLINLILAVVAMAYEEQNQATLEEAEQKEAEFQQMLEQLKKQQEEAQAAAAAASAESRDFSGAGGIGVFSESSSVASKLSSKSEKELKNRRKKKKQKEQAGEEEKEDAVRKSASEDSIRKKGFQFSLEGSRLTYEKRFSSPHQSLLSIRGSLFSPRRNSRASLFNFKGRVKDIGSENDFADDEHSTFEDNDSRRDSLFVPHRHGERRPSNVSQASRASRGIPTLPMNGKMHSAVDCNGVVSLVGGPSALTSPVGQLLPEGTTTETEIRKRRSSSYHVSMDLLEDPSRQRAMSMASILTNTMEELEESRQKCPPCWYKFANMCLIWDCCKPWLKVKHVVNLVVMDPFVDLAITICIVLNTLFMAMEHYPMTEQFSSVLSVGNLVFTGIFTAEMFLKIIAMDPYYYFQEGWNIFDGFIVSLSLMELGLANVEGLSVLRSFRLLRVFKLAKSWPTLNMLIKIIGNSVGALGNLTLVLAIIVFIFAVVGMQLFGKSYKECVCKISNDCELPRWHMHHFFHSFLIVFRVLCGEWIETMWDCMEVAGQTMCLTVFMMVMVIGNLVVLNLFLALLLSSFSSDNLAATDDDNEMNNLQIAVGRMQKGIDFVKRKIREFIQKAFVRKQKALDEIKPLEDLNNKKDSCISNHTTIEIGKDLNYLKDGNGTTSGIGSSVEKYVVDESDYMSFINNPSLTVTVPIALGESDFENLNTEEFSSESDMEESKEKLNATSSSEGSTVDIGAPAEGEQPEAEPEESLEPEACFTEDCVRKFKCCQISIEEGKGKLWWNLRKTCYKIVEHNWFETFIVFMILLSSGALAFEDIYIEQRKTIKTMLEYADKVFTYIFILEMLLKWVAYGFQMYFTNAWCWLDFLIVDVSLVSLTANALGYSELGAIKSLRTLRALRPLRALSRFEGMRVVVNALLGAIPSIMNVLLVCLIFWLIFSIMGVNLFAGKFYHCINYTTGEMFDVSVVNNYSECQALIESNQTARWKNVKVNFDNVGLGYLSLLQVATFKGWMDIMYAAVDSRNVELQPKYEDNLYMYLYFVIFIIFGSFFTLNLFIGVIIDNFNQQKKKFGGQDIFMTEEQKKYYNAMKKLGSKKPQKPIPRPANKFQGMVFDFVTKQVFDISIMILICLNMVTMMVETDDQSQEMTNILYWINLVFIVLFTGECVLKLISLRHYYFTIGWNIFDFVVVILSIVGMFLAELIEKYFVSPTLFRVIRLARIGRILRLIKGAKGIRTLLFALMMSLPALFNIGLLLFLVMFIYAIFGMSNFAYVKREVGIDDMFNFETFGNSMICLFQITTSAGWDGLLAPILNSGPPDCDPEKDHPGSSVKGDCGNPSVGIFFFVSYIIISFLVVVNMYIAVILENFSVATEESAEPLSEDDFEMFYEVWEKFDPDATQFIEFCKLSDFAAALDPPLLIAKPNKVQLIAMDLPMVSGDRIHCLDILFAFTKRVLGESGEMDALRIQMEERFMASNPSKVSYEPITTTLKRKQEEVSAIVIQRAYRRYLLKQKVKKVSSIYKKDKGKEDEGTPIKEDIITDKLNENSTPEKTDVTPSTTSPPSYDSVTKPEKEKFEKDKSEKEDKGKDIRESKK

| Structure (SMILES) | ΔV1/2 (shift of availability curve) ([1]; 30 μM) [mV] | inhibition at 30 µM [1, 5] [%] | Ki [1, 6] [µM] | Ki [1, 7] [µM] | Kd [1, 8] [µM] | Kd [1, 9] [µM] | Ki [1, 10] [µM] | Ki [1, 11] [µM] | Ki [2] [µM] | Kd [2] [µM] | τon ([3]; 30 μM) [s] | UD (use-dependence of the inhibition) ([3]; 30 μM, 5 Hz train) | τoff [3, 12] [s] | Rev (reversibility) ([3]; 30 μM) | inhibition at 30 µM [3, 13] [%] | potency estimated from few doses [3, 14] [µM] | plasma conc. ([4]; as printed in each cell) | plasma conc. ([4]; as printed in the µg/ml cell) [µM] | ΔV1/2 (shift of availability curve) ([1]; 300 μM) [mV] | inhibition at 300 µM [1, 15] [%] | further results |
| --- | --- | --- | --- | --- | --- | --- | --- | --- | --- | --- | --- | --- | --- | --- | --- | --- | --- | --- | --- | --- | --- |
| CN(C)CCC=C1c2ccccc2CCc2ccccc21 [AMI, Amitriptyline] | −11.2 | 20 | 5.13 | 3.78 | 128 | 125 | 4.92 | 3.69 | 0.52 | 38.1 | 10.54 | 1.66 | 16.95 | 0.50 | 56 | 23.5 | 0.064 [44] µg/ml | 0.204 |  |  | ΔV1/2 (shift of availability curve) ([1]; 10 µM): −11.3 mV; ΔV1/2 (shift of availability curve) ([1]; 100 μM): −18 mV; inhibition at 10 µM ([1]; HEK293, 10 µM, read-out: Inh (inhibited fraction) at holding potential −150 mV): 8%; inhibition at 100 µM ([1]; HEK293, 100 µM, read-out: Inh (inhibited fraction) at holding potential −150 mV): 59%; Ki ([1]; arithmetic mean, 10 µM, read-out: Ki-Kapp arith): 5.17 µM; Ki ([1]; arithmetic mean, 10 µM, read-out: Ki-ΔV1/2 arith): 1.97 µM; Kd ([1]; arithmetic mean, 10 µM, read-out: Kr arith): 155 µM; Ki ([1]; arithmetic mean, 100 µM, read-out: Ki-Kapp arith): 2.08 µM; Ki ([1]; arithmetic mean, 100 µM, read-out: Ki-ΔV1/2 arith): 1.87 µM; Kd ([1]; arithmetic mean, 100 µM, read-out: Kr arith): 72.4 µM; Kd ([1]; geometric mean, from Inh at −150 mV, 10 µM, read-out: Kr (resting state affinity)): 134 µM; Kd ([1]; geometric mean, from Inh at −150 mV, 100 µM, read-out: Kr (resting state affinity)): 69.6 µM; Ki ([1]; geometric mean, from apparent affinity, 10 µM, read-out: Ki−Kapp (inactivated state affinity)): 3.34 µM; Ki ([1]; geometric mean, from apparent affinity, 100 µM, read-out: Ki−Kapp (inactivated state affinity)): 2 µM; Ki ([1]; geometric mean, from shift of availability curve, 10 µM, read-out: Ki−ΔV1/2 (inactivated state affinity)): 1.45 µM; Ki ([1]; geometric mean, from shift of availability curve, 100 µM, read-out: Ki−ΔV1/2 (inactivated state affinity)): 1.65 µM |
| COc1ccccc1OCC(O)CN1CCN(CC(=O)Nc2c(C)cccc2C)CC1 (stereo not shown) [RAN, Ranolazine] |  |  |  |  |  |  |  |  | 75 | 1000 |  |  |  |  |  |  | 3.59 [52] µg/ml | 7.173 | −5.52 | 42 | Ki [1, 16]: 19.7 µM; Ki ([1]; arithmetic mean, 300 µM, read-out: Ki-ΔV1/2 arith): 77.9 µM; Kd [1, 17]: 587 µM; Kd [1, 18]: 435 µM; Ki [1, 19]: 10.7 µM; Ki ([1]; geometric mean, from shift of availability curve, 300 µM, read-out: Ki−ΔV1/2 (inactivated state affinity)): 66.8 µM; τon ([3]; 100 μM): 8.13 s; UD (use-dependence of the inhibition) ([3]; 100 μM, 5 Hz train): 1.21; τoff ([3]; 100 μM, 500 s assigned where irreversible): 13.24 s; Rev (reversibility) ([3]; 100 μM): 0.89; inhibition at 100 µM ([3]; HEK293, 100 μM, −90 mV holding potential, 5 Hz train, read-out: Inh (inhibited fraction)): 16%; potency estimated from few doses ([3]; HEK293, calculated from Inh at single concentration 100 μM, 5 Hz train): 355 µM; (IC50/Ki) / (Kr/Ki) ratio ([3]; from IC50 (5 Hz train) and Kr, Ki (steady-state inactivation)): 0.94 |
| Fc1ccc([C@@H]2CCNC[C@H]2COc2ccc3c(c2)OCO3)cc1 [PRX, Paroxetine] | −11.4 | 55 | 1.63 | 8.99 | 32.1 | 24.2 | 0.73 | 1.99 | 1.45 | 17 | 32.07 | 1.46 | 35.99 | 0.34 | 65 | 16.2 | 0.38 [44] µg/ml |  |  |  |  |
| Cc1cccc(C)c1OCC(C)N (stereo not shown) [MEX, Mexiletine] |  |  |  |  |  |  |  |  | 12.4 | 395 |  |  |  |  |  |  | 2 [44] µg/ml | 9.271 | −10.3 | 32 | Ki ([1]; Ki-ΔV1/2 arith, arithmetic mean, 300 µM): 37.3 µM; Ki ([1]; Ki−ΔV1/2 (inactivated state affinity), geometric mean, from shift of availability curve, 300 µM): 26.8 µM; Ki [1, 16]: 19.2 µM; Kd [1, 17]: 662 µM; Kd [1, 18]: 638 µM; Ki [1, 19]: 17.9 µM; τoff ([3]; 300 μM): 12.93 s; τon ([3]; 300 μM, 3 s assigned where too short to be resolved): 8.6 s; UD (use-dependence of the inhibition) ([3]; 300 μM, 5 Hz train): 1.39; Rev (reversibility) ([3]; 300 μM): 0.78; inhibition at 300 µM ([3]; HEK293, 300 μM, −90 mV holding potential, 5 Hz train, read-out: Inh (inhibited fraction)): 57%; potency estimated from few doses ([3]; HEK293, calculated from Inh at single concentration 300 μM, 5 Hz train): 231 µM |
